Data on one compound can be found in ChEMBL document CHEMBL4311992, “Discovery of 3-(((9H-purin-6-yl)amino)methyl)-4,6-dimethylpyridin-2(1H)-one derivatives as novel tubulin polymerization inhibitors for treatment of cancer” (Eur J Med Chem, 2019).

As a reminder, the IC50 is the concentration that inhibits the measured activity by half.

Series [1] has as its system Tyrosine-protein kinase receptor UFO (Homo sapiens), P30530 [Q764R]. Nature of the series: Inhibition of recombinant human AXL Q764R mutant (473 to end residues) assessed as residual activity at 10 uM using KKSRGDYMTMQIG as substrate measured after 40 mins in presence of [gamma33P]ATP by scintillation counting method.
Series [2] deals with Mitogen-activated protein kinase 13 (Homo sapiens) (UniProt O15264). Description: Inhibition of recombinant full-length human SAPK4 assessed as residual activity at 10 uM using myelin basic protein as substrate measured after 40 mins in presence of [gamma33P]ATP by scintillation counting method.
Series [3] deals with SW-620. Nature of the series: Induction of apoptosis in human SW620 cells assessed as early apoptotic cells at 50 nM measured after 48 hrs by Annexin V-FITC/propidium iodide staining-based flow cytometry (reference value: 0.773%). The class given is functional.
The target of series [4] is TGF-beta receptor type-2 (Homo sapiens) (UniProt P37173). Nature of the series: Inhibition of human TGFBR2 (188 to end residues) using myelin basic protein as substrate measured after 120 mins in presence of [gamma33P]ATP by scintillation counting method. On the set-up: scale not given: the % may be the effect or the level left.
The test system of series [5] is SW-620. Nature of the series: Induction of apoptosis in human SW620 cells assessed as late apoptotic cells at 100 nM measured after 48 hrs by Annexin V-FITC/propidium iodide staining-based flow cytometry (reference value: 1.8%). The class given is functional. (A flow cytometer gives signals particle by particle.)
The target in series [6] is Serine/threonine-protein kinase 38-like (Homo sapiens) (UniProt Q9Y2H1). Description: Inhibition of recombinant human NDR2 (83 to end residues) assessed as residual activity at 10 uM using RSRSRSRSRSRSRSR as substrate measured after 40 mins in presence of [gamma33P]ATP by scintillation counting method.
The target of series [7] is Cyclin-Y/Cyclin-dependent kinase 16 (Homo sapiens) (UniProt Q00536+Q8ND76). Description: Inhibition of recombinant full length human CDK16/cyclinY assessed as residual activity at 10 uM using PKSPKARKKL as substrate measured after 120 mins in presence of [gamma33P]ATP by scintillation counting method. In kind it is protein-complex assay.
The species named for series [8] is Homo sapiens. Nature of the series: Inhibition of recombinant human EphB2 A848S/ K918E mutant (560 to end residues) assessed as residual activity at 10 uM using KTFCGTPEYLAPEVRREPRILSEEEQEMFRDFDYIADWC as substrate measured after 40 mins in presence of [gamma33P]ATP by scintillation counting method.
Series [9] deals with Phosphatidylinositol 5-phosphate 4-kinase type-2 alpha (Homo sapiens) (UniProt P48426). Nature of the series: Inhibition of recombinant full-length human PIP4K2alpha assessed as residual activity at 10 uM using phosphatidylinositol 5-phosphate as substrate measured after 40 mins by HTRF assay. For orientation: In TR-FRET formats the signal depends on donor and acceptor labels being close together.

The target in series [10] is Serine/threonine-protein kinase TAO1 (Homo sapiens) (UniProt Q7L7X3). Description: Inhibition of human TAO1 (1 to 327 residues) using myelin basic protein as substrate measured after 40 mins in presence of [gamma33P]ATP by scintillation counting method. On the set-up: scale not given: the % may be the effect or the level left.
Series [11] has as its target Casein kinase I isoform gamma-2 (Homo sapiens) (UniProt P78368). Description: Inhibition of recombinant human CK1gamma2 (18 to end residues) assessed as residual activity at 10 uM using KRRRALS(p)VASLPGL as substrate measured after 40 mins in presence of [gamma33P]ATP by scintillation counting method.
Series [12] has as its target Serine/threonine-protein kinase TAO2 (Homo sapiens) (UniProt Q9UL54). Description: Inhibition of human TAO2 (1 to 320 residues) using myelin basic protein as substrate measured after 40 mins in presence of [gamma33P]ATP by scintillation counting method. On the set-up: scale not given: the % may be the effect or the level left.
Series [13] concerns DLD-1. Nature of the series: Antiproliferative activity against human DLD1 cells assessed as reduction in cell viability after 72 hrs by MTT assay. The class given is functional, cell-based. The following applies: DLD-1, 72 h.
In series [14] the target is Serine/threonine-protein kinase Nek3 (Homo sapiens) (UniProt P51956). Description: Inhibition of recombinant full-length human NEK3 assessed as residual activity at 10 uM using myelin basic protein as substrate measured after 40 mins in presence of [gamma33P]ATP by scintillation counting method.
Series [15] addresses Serine/threonine-protein kinase 24 (Homo sapiens) (UniProt Q9Y6E0). Nature of the series: Inhibition of recombinant human MST3 (1 to 304 residues) assessed as residual activity at 10 uM using ERMRPRKRQGSVRRRV as substrate measured after 40 mins in presence of [gamma33P]ATP by scintillation counting method.
Series [16] concerns the target Epidermal growth factor receptor (Homo sapiens) (UniProt P00533). Description: Inhibition of recombinant human EGFR (696 to end residues) assessed as residual activity at 10 uM using poly(Glu, Tyr) 4:1 as substrate measured after 40 mins in presence of [gamma33P]ATP by scintillation counting method.
Series [17] in a line: Toxicity in nude BALB/c mouse xenografted with human HCT116 cells assessed as change in body weight at 80 mg/kg, po administered once daily for 4 weeks measured every 3 days during compound dosing. The class given is organism-based. Conditions: in vivo. (In xenograft studies the graft and the host belong to different species.)
The target of series [18] is Phosphatidylinositol 3-kinase C2 domain-containing subunit gamma (Homo sapiens) (UniProt O75747). Nature of the series: Inhibition of recombinant human PI3KC2gamma (468 to 1203 residues) assessed as residual activity at 10 uM using phosphatidylinositol as substrate measured after 40 mins by HTRF assay.
Series [19] concerns the target Mitogen-activated protein kinase 12 (Homo sapiens) (UniProt P53778). Description: Inhibition of recombinant full-length human SAPK3 assessed as residual activity at 10 uM using myelin basic protein as substrate measured after 40 mins in presence of [gamma33P]ATP by scintillation counting method.
Series [20] concerns Proto-oncogene tyrosine-protein kinase Src (Homo sapiens), P12931 [T341M]. Nature of the series: Inhibition of recombinant full-length human Src T341M mutant assessed as residual activity at 10 uM using GGEEEEYFELVKKKK as substrate measured after 40 mins in presence of [gamma33P]ATP by scintillation counting method.
The target of series [21] is Testis-specific serine/threonine-protein kinase 2 (Homo sapiens) (UniProt Q96PF2). Nature of the series: Inhibition of recombinant full-length human TSSK2 assessed as residual activity at 10 uM using KKKVSRSGLYRSPSMPENLNRPR as substrate measured after 40 mins in presence of [gamma33P]ATP by scintillation counting method.
Series [22] has as its target Serine/threonine-protein kinase 33 (Homo sapiens) (UniProt Q9BYT3). Nature of the series: Inhibition of recombinant full-length human STK33 assessed as residual activity at 10 uM using myelin basic protein as substrate measured after 40 mins in presence of [gamma33P]ATP by scintillation counting method.
In series [23] the target is Tyrosine-protein kinase JAK2 (Homo sapiens) (UniProt O60674). Description: Inhibition of recombinant human JAK2 (808 to end residues) assessed as residual activity at 10 uM using KTFCGTPEYLAPEVRREPRILSEEEQEMFRDFDYIADWC as substrate measured after 40 mins in presence of [gamma33P]ATP by scintillation counting method.
Series [24] relates to HCT-116. Description: Cell cycle arrest in human HCT116 cells assessed as up regulation of CyclinB1 expression up to 150 nM after 24 hrs by Western blot analysis. The class given is functional, cell-based.

Activity calls are given as the source filed them. No cut-off for these calls is given here.

Sequence of Testis-specific serine/threonine-protein kinase 2 (Homo sapiens) (Q96PF2 whole entry): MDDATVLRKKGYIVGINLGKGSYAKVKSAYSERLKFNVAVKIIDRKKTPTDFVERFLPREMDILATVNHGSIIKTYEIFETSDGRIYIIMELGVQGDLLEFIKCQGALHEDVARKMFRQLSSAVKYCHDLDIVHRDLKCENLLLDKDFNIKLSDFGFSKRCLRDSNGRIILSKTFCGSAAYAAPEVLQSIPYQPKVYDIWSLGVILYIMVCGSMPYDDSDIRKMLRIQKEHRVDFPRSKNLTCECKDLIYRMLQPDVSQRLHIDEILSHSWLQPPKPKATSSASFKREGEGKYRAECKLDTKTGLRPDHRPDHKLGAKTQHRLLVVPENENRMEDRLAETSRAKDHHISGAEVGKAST
Sequence of Phosphatidylinositol 3-kinase C2 domain-containing subunit gamma (Homo sapiens) (O75747 whole entry, the tested form may be a part): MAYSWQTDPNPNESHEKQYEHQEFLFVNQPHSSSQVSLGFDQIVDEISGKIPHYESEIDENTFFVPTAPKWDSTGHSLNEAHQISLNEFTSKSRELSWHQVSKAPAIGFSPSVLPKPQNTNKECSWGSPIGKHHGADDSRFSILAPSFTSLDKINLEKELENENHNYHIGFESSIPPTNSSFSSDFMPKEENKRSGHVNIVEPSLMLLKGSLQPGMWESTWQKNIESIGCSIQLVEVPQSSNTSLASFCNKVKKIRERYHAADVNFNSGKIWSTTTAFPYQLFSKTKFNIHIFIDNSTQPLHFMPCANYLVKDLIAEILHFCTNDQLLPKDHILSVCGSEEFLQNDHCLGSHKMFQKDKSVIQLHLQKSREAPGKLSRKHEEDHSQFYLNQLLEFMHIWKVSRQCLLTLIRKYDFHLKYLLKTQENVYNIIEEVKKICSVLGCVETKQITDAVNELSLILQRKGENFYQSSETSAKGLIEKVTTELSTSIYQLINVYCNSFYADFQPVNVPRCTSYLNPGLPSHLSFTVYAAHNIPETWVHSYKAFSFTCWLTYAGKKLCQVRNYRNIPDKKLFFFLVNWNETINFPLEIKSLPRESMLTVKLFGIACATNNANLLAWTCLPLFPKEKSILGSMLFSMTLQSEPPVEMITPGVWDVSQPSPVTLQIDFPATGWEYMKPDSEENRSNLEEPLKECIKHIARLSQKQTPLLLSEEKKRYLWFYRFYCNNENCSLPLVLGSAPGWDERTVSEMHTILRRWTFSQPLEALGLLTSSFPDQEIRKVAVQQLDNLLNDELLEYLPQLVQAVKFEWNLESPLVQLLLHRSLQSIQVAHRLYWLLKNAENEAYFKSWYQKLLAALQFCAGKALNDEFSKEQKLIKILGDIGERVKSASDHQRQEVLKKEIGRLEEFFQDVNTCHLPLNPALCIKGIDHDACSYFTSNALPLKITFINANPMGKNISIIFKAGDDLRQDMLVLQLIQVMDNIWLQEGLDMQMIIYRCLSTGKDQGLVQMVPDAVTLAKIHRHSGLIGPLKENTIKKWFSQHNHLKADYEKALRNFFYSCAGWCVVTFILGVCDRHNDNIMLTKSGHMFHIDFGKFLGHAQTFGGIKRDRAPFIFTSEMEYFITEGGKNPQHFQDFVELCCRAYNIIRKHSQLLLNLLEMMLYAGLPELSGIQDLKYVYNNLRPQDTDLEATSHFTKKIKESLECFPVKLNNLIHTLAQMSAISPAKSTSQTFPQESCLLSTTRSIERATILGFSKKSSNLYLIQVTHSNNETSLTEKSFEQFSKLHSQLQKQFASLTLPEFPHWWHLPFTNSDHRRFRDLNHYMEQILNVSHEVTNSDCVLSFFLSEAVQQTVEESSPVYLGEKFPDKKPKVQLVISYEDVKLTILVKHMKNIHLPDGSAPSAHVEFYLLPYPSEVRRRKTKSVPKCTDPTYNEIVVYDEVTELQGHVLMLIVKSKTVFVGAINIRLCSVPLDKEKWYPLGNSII
Sequence of Mitogen-activated protein kinase 13 (Homo sapiens) (O15264 whole entry): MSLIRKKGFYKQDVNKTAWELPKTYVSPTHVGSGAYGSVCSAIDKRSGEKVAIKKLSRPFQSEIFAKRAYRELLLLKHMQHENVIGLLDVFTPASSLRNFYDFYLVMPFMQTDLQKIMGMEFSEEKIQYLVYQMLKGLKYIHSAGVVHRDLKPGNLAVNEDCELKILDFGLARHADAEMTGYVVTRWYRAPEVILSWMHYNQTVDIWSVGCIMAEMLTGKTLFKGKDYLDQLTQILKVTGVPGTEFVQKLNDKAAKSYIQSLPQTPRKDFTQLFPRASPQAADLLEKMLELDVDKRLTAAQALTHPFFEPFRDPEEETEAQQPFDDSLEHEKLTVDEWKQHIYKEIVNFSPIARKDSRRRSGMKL
Sequence of Mitogen-activated protein kinase 12 (Homo sapiens) (P53778 whole entry): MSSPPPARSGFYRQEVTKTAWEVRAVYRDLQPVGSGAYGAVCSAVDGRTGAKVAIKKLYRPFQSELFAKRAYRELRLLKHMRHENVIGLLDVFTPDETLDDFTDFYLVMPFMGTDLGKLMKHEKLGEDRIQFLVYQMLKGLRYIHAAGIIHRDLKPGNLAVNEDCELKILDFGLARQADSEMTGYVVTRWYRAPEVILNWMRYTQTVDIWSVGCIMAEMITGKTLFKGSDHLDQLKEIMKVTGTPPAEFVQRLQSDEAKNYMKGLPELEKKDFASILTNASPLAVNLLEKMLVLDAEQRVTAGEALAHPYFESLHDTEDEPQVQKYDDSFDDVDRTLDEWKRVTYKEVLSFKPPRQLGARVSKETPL
Sequence of TGF-beta receptor type-2 (Homo sapiens) (P37173 whole entry): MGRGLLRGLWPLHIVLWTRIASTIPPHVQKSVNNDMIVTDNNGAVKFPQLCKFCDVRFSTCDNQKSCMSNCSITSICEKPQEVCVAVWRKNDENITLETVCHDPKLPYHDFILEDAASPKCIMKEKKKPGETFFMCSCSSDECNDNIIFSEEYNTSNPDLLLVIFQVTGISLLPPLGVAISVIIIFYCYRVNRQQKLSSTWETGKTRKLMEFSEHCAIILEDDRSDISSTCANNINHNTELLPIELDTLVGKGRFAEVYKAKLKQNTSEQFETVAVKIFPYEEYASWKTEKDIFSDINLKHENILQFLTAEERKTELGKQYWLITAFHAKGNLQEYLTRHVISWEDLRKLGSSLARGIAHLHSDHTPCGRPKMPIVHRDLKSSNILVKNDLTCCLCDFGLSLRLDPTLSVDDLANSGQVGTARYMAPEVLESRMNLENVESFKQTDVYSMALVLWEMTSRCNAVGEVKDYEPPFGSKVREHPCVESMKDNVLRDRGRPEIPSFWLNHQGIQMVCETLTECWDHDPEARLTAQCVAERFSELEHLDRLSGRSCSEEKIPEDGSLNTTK
Sequence of Serine/threonine-protein kinase 38-like (Homo sapiens) (Q9Y2H1 2-464 limits assumed): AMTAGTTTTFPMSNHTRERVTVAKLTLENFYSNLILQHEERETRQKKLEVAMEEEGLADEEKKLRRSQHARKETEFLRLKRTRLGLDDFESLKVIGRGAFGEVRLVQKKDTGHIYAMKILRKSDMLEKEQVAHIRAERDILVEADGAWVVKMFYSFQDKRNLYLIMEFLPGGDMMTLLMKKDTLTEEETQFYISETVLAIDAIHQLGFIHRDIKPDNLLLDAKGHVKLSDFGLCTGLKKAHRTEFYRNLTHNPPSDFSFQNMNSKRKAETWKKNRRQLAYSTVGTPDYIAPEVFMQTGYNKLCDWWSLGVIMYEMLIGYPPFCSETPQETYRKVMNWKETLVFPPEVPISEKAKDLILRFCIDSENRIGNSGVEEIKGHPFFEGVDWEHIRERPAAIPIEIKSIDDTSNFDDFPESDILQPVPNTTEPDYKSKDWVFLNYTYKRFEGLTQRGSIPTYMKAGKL
Sequence of Casein kinase I isoform gamma-2 (Homo sapiens) (P78368 whole entry, looked up, the tested form may be a part, canonical isoform): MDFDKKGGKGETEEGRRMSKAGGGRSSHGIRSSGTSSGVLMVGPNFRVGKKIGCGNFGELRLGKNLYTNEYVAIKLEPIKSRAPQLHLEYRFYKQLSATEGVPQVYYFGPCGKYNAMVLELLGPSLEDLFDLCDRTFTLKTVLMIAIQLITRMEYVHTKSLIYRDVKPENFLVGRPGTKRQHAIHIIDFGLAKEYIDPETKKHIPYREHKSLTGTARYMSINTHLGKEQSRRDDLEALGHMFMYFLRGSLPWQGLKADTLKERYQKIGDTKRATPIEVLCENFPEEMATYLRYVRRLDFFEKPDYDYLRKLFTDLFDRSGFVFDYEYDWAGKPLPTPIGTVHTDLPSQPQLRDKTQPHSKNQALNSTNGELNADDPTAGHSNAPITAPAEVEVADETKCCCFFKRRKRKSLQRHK
Sequence of Serine/threonine-protein kinase Nek3 (Homo sapiens) (P51956 whole entry, the tested form may be a part): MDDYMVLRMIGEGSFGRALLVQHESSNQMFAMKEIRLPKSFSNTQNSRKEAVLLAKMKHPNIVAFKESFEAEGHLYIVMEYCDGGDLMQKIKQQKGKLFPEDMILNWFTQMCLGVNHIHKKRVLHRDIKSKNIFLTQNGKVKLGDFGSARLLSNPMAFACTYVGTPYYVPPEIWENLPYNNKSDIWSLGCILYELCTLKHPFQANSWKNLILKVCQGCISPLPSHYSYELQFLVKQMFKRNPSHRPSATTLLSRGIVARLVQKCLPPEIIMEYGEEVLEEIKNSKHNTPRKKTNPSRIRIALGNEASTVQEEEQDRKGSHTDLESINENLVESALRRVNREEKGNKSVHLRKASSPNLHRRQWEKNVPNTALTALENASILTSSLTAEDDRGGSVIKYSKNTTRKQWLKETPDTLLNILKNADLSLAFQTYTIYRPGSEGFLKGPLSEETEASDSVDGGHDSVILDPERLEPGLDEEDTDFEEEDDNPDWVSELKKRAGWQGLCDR
Sequence of Phosphatidylinositol 5-phosphate 4-kinase type-2 alpha (Homo sapiens) (P48426 whole entry): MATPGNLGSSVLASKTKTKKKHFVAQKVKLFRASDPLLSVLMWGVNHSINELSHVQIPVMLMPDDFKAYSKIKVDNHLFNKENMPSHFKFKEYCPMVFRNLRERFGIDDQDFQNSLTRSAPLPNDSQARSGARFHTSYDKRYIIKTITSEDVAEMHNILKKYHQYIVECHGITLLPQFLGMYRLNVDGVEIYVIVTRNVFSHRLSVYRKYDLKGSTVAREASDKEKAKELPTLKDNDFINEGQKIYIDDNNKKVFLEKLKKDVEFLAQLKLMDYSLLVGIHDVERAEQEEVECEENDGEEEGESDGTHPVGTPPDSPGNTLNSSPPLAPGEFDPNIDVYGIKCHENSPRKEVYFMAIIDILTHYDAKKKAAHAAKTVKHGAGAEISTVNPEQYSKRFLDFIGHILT

For the compound `Cc1cc(C)c(CNc2nc(Cl)nc3c2ncn3C2CCCC2)c(=O)[nH]1`, the Activity came out at 107% in series [1]; 96.5% in series [2]; 1.01% in series [3]; 71% in [4]; 23.1% in [5]; 108% in series [6]. Also, the Activity in [7] worked out at 123%; in [8] it was 93.5%; in [9], 108%; in [10], 93.5%; in [11] it was 104%; in series [12], 104%. In addition, the Activity in [14] was 102%; in series [15], 110%; in series [16], 114%; in [17], “Non-Toxic”; in series [18] it was 100%; in series [19] it was 96.5%. Also, the Activity is 122% in series [20], 117% in series [21], 86.5% in series [22] and 115% in series [23]. For the same compound, the half-maximal inhibitory concentration (IC50) in [13] came out at 136 nM. The result in series [24] was Active.
